The text below walks through data of US5185352A, “Alkoxy-4(1H)-pyridone derivatives, processes for the preparation thereof and pharmaceutical compositions containing them” (Goedecke Aktiengesellschaft, priority 1988, dated 1993).

Molecules are shown by their SMILES. Where a name gives a salt, the structure may show the parent alone.

The target of this assay is calcium- and phospholipid-dependent protein kinase (PKC). Kind of assay: Inhibition of the activity of protein kinase C (incorporation of P^32-labelled phosphate into histone H-1). The settings on record: PKC enriched from rat brain; histone H-1 substrate; 5 min, 30° C.; pH 7.5. Type of assay: biochemical. An excerpt: For the clarification of the inhibiting influence of compounds of formula I according to the present invention on the calcium- and phospholipid-dependent protein kinase (PKC), this enzyme activity was enriched from rat brain. Using the purification steps described in the literature (J. Biol. Chem., 260, 15718-15722/1985), in the case of a purification consisting of two steps, there was utilized the property of the enzyme to bind to cell membranes in the presence of calcium and to be dissolved off again by calcium chelators (EGTA). In the first enrichment step, there took place the binding of the PKC to membranes of the rat brain and in the second step on so-called inside-out vesicles or erythrocytes. After dissolving off from the erythrocyte membranes and rebuffering, the PKC preparation was present in 10 mM HEPES, 1 mM DTT, 0.1% PEG 20000, pH 7.5. Under these conditions, it could be stored at -70° C. for several months without loss of activity.
The activity of the enzyme was determined via the incorporation of P^32 -labelled phosphate into the protein histone H-1 (Sigma Type III) which can be phosphorylated by PKC.
The test thereby contains the following components: 50 mM HEPES-NaOH (pH 7.5), 5 mM magnesium chloride, 1 mM DTT, 4 μm. free calcium ions, 10 μMaTP, 1 μg phosphatidylserine, 0.2 μg 1,2-diolein, as well as 40 μg histone H-1 and optionally the test substance.
The batch is preincubated for 4 minutes at 30° C. and the reaction then started by the addition of 5 nM PKC. After incubating for 5 minutes at 30° C., the reaction is stopped with 10% TCA and the samples then filtered off. The phosphate incorporation is determined by Cerenkov counting in a scintillation counter. The kinase activity measured in the absence of the test substance was, in each case, taken as being 100% and the inhibiting action of the compounds of formula I referred thereto as percentages.
In the case of `CCCCCCCCCCCCCCCCCCOc1cn(Cc2ccccc2)c(CNCCCNC(C)c2ccccc2)cc1=O` (racemic) [Example 83, (±)-1-Benzyl-5-octadecyloxy)-2-{N-[3-(1-phenylethyl)aminopropyl]-aminomethyl}-4(1H)-pyridone·trihydrochloride], the IC50 (commonly the concentration at which inhibition is half-maximal) turned out to be 2.6 µM.

`CCCCCCCCCCCCCCCCCCOc1cn(Cc2ccccc2)c(CN2CCN(C(C)c3ccccc3)CC2)cc1=O` (racemic) [Example 97, (±)-1-[(1-Benzyl-5-octadecyloxy-4(1H)-pyridone-2-yl)methyl]-4-(1-phenylethyl)piperazine·trihydrochloride 3/4 H2 O]: the IC50 was determined as 4.4 µM.

As for `CCCCCCCCCCCCCCCCCCOc1cn(C(C)c2ccccc2)c(CN2CCN(Cc3ccccc3)CC2)cc1=O` (racemic) [Example 98, (±)-1-[(5-Octadecyloxy-1-(1-phenylethyl)-4(1H)-pyridone-2-yl)-methyl]-4-benzylpiperazine], the IC50 was determined as 5.4 µM.

For `CCCCCCCCCCCCCCCCCCOc1cn(Cc2ccccc2)c(CN2CCNCC2C)cc1=O` (racemic) [Example 102, (±)-1-[(1-Benzyl-5-octadecyloxy-4(1H)-pyridon-2-yl)methyl]-2-methylpiperazine fumarate], the half-maximal inhibitory concentration (IC50) was 2 µM.

On to `CCCCCCCCCCCCCCCCCCOc1cn(C(C)c2ccccc2)c(CN2CCN(Cc3ccccc3)CC2)cc1=O` (single isomer, unassigned; (+)) [Example 100, (+)-1-[(5-Octadecyloxy-1-(1-phenylethyl)-4(1H)-pyridone-2-yl)-methyl]-4-benzylpiperazine], for which the IC50 stood at 2.7 µM.

As for `CCCCCCCCCCCCCCCCCCOc1cn(C(C)c2ccccc2)c(CN2CCN(Cc3ccccc3)CC2)cc1=O` (single isomer, unassigned; (-)) [Example 99, (-)-1-[(5-Octadecyloxy-1-(1-phenylethyl)-4(1H)-pyridone-2-yl)-methyl]-4-benzylpiperazine], the IC50 was determined as 5.2 µM.

For `CCCCCCCCCCCCCCCCCCOc1cn(CCCN(C)C)c(CO)cc1=O` [Example 21, 1-(3-Dimethylaminopropyl)-2-hydroxymethyl-5-octadecyloxy-4(1H)-pyridone], the IC50 was found to be 2.4 µM.

In the case of `CCCCCCCCCCCCCCCCCCOc1cn(C)c(CNCCCN(C)C)cc1=O` [Example 56, 2-[N-(3-Dimethlaminopropyl)-aminomethyl]-1-methyl-5-octadecyloxy-4(1H)-pyridone trihydrochloride hemihydrate], the IC50 worked out at 2.9 µM.

On to `CCCCCCCCCCCCCCCCCCOc1cn(Cc2ccccc2)c(CN(C)CCN(C)C)cc1=O` [Example 57, 1-Benzyl-2-[N-(2-dimethylaminoethyl)-N-methylaminomethyl]-5-octadecyloxy-4(1H)-pyridone trihydrochloride], for which the half-maximal inhibitory concentration (IC50) was found to be 1.9 µM.

`CCCCCCCCCCCCCCCCCCOc1cn(CCC)c(CNCCCN(C)C)cc1=O` [Example 59, 2-[N-(3-Dimethylaminopropyl)aminomethyl]-5-octadecyloxy-1-propyl-4(1H)-pyridone dioxalate]: the IC50 worked out at 2.9 µM.

Regarding `CCCCCCCCCCCCCCCCCCOc1cn(C)c(CNCCCN)cc1=O` [Example 60, 2-[N-(3-Aminopropyl)-aminomethyl]-1-methyl-5-octadecyloxy-4(1H)-pyridone trihydrochloride], the IC50 was 2.7 µM.

With `CCCCCCCCCCCCCCCCCCOc1cn(Cc2ccccc2)c(CNCCCN)cc1=O` [Example 61, 2-[N-(3-Aminopropyl)-aminomethyl]-1-benzyl-5-octadecyloxy-4(1H)-pyridone trihydrochloride], the IC50 stood at 2.1 µM.

Turning to `CCCCCCCCCCCCCCOc1cn(Cc2ccccc2)c(CNCCCN(C)C)cc1=O` [Example 65, 1-Benzyl-2-[N-(3-dimethylaminopropyl)aminomethyl]-5-tetradecyloxy-4(1H)-pyridone dioxalate monohydrate], the IC50 was determined as 6.5 µM.

With `CCCCCCCCCCCCCCCCCCCCOc1cn(Cc2ccccc2)c(CNCCCN(C)C)cc1=O` [Example 66, 1-Benzyl-2-[N-(3-dimethylaminopropyl)aminomethyl]-5-eicosanyloxy-4(1H)-pyridone dioxalate monohydrate], the IC50 came to 2.5 µM.

On to `CCCCCCCCCCCCCCCCCCOc1cn(CC2CCCCC2)c(CNCCCN(C)C)cc1=O` [Example 68, 1-Cyclohexylmethyl-2-[N-(3-dimethylaminopropyl)aminomethyl]-5-octadecyloxy-4(1H)-pyridone difumarate], for which the IC50 worked out at 1.9 µM.

Consider `CCCCCCCCCCCCCCCCCCOc1cn(-c2ccccc2)c(CNCCCN(C)C)cc1=O` [Example 70, 2-[N-(3-Dimethylaminopropyl)aminomethyl]-5-octadecyloxy-1-phenyl-4(1H)-pyridone], for which the IC50 amounted to 2.2 µM.

As to `CCCCCCCCCCCCCCCCCCOc1cn(Cc2ccc(OC)cc2)c(CNCCCN(C)C)cc1=O` [Example 72, 2-[N-(3-Dimethylaminopropyl)aminomethyl]-1-(4-methoxybenzyl)-5-octadecyloxy-4(1H)-pyridone trihydrochloride monohydrate], the IC50 was determined as 3.6 µM.

With `CCCCCCCCCCCCCCCCCCOc1cn(Cc2ccccc2)c(CN(C)C)cc1=O` [Example 73, 1-Benzyl-2-dimethylaminomethyl-5-octadecyloxy-4(1H)-pyridone oxalate hemihydrate], the IC50 turned out to be 4.4 µM.

In the case of `CCCCCCCCCCCCCCCCCCOc1cn(Cc2ccccc2OC)c(CNCCCN(C)C)cc1=O` [Example 74, 2-[N-(3-Dimethylaminopropyl)aminomethyl]-1-(2-methoxybenzyl)-5-octadecyloxy-4(1H)-pyridone difumarate], the IC50 turned out to be 2.1 µM.

As to `CCCCCCCCCCCCCCCCCCOc1cn(Cc2ccccc2)c(CN(C)Cc2ccccc2)cc1=O` [Example 75, 1-Benzyl-2-(N-benzyl-N-methylaminomethyl)-5-octadecyloxy-4(1H)-pyridone], the IC50 came to 9.5 µM.

Turning to `CCCCCCCCCCCCCCCCCCOc1cn(Cc2ccc(C)cc2)c(CNCCCN(C)C)cc1=O` [Example 76, 2-[N-(3-Dimethylaminopropyl)aminomethyl]-1-(4-methylbenzyl)-5-octadecyloxy-4(1H)-pyridone trihydrochloride hemihydrate], the IC50 is 1.9 µM.

Take `CCCCCCCCCCCCCCCCCCOc1cn(Cc2ccccc2)c(CNCCCCN)cc1=O` [Example 77, 2-[N-(4-Aminobutyl)aminomethyl]-1-benzyl-5-octadecyloxy-4(1H)-pyridone trihydrochloride]: the IC50 came to 2.3 µM.

Turning to `CCCCCCCC/C=C\CCCCCCCCOc1cn(Cc2ccccc2)c(CNCCCN(C)C)cc1=O` [Example 78], the IC50 is 4.6 µM.

With `CCCCCCCCCCCCCCCCCCOc1cn(-c2ccc(OCc3ccccc3)cc2)c(CNCCCN(C)C)cc1=O` [Example 79, 1-(4-Benzyloxyphenyl)-2-[N-(3-dimethylaminopropyl)aminomethyl]-5-octadecyloxy-4(1H)-pyridone], the IC50 amounted to 2.2 µM.

As for `CCCCCCCCCCCCCCCCCCOc1cn(-c2ccc(OCc3ccccc3)cc2)c(CNCCCN(C)C)cc1=O` [Example 80, 1-(4-Benzyloxyphenyl)-2-[N-(3-dimethylaminopropyl)aminomethyl]-5-octadecyloxy-4(1H)-pyridone·difumarate·2,5 H2 O], the IC50 stood at 2.6 µM.

For the molecule `CCCCCCCCCCCCCCCCCCOc1cn(Cc2ccc(O)cc2)c(CNCCCN(C)C)cc1=O` [Example 84], the IC50 is 3.4 µM.

On to `CCCCCCCCCCCCCCCCCCOc1cn(-c2ccc(O)cc2)c(CNCCCN(C)C)cc1=O` [Example 85, 2-[N-(3-Dimethylaminopropyl)aminomethyl]-1-(4-hydroxyphenyl)-5-octadecyloxy-4(1H)-pyridone·trihydrochloride·0,5 H2 O], for which the IC50 came out at 5.8 µM.

On to `CCCCCCCCCCCCCCCCCCOc1cn(Cc2ccccc2)c(CN(C)CCCN(C)C)cc1=O` [Example 89, 1-Benzyl-2-[N-(3-dimethylaminopropyl)-N-methylaminomethyl]-5-octadecyloxy-4(1H)-pyridone trihydrochloride], for which the half-inhibitory concentration (IC50) was 1.8 µM.

For the molecule `CCCCCCCCCCCCCCCCCCOc1cn(Cc2ccccc2)c(CN2CCN(Cc3ccccc3)CC2)cc1=O` [Example 93, 1-[(1-Benzyl-5-octadecyloxy-4(1H)-pyridone-2-yl)methyl]-4-benzylpiperazine·dioxlate·1/2 H2 O], the IC50 was determined as 5.5 µM.

`CCCCCCCCCCCCCCCCCCOc1cn(Cc2ccccc2)c(CN2CCN(CCc3ccccc3)CC2)cc1=O` [Example 94, 1-[(1-Benzyl-5-octadecyloxy-4(1H)-pyridone-2-yl)methyl]-4-(2-phenylethyl)piperazine·trihydrochloride·1/2 H2 O]: the IC50 was 2.4 µM.

Consider `CCCCCCCCCCOc1cn(Cc2ccccc2)c(CN2CCN(CCc3ccccc3)CC2)cc1=O` [Example 95, 1-[(1-Benzyl-5-decyloxy-4(1H)-pyridone-2-yl)-methyl]4-(2-phenylethyl)piperazine·dihydrochloride], for which the IC50 turned out to be 4.3 µM.
